Laboratory results taken from US20050064510A1, “Ligand analysis” (priority 2003, published 2005).

The molecules below were run against T1, muscarinic acetylcholine receptor M2 (Cavia porcellus, UniProt H0VRN8) (assay: Tissue-based assay for M2 antagonism). Details: not given.
T1 sequence (H0VRN8 1-466): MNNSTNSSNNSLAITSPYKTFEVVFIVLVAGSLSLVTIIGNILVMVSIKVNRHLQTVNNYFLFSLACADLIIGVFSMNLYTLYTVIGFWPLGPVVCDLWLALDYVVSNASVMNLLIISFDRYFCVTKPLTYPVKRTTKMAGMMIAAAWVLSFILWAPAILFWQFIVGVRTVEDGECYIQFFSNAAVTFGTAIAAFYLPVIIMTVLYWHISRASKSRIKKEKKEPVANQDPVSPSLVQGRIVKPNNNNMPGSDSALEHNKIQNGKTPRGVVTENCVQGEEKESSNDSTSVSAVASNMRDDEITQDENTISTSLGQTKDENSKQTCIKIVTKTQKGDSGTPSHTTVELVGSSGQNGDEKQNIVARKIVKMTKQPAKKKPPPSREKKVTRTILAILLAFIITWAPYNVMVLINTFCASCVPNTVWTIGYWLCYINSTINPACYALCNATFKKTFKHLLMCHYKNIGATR

**Q.** How did the “activity in tissue” value turn out when O=C(N[C@H]1CCCC[C@@H]1OCc1ccccc1)c1coc(-c2ccc(C(=O)N3CCC(N4CCCC4)CC3)cc2)n1 [NGD-3350] was run?
**A.** significant activity

Each molecule was assayed against T2, Serine Kinase Zap-70 (Homo sapiens, UniProt P43403) (assay: AS-MS dissociation kinetics after quench with excess Staurosporine). Details: read-out: Dissociation rate ks2 (converted).
T2 sequence (P43403 1-619): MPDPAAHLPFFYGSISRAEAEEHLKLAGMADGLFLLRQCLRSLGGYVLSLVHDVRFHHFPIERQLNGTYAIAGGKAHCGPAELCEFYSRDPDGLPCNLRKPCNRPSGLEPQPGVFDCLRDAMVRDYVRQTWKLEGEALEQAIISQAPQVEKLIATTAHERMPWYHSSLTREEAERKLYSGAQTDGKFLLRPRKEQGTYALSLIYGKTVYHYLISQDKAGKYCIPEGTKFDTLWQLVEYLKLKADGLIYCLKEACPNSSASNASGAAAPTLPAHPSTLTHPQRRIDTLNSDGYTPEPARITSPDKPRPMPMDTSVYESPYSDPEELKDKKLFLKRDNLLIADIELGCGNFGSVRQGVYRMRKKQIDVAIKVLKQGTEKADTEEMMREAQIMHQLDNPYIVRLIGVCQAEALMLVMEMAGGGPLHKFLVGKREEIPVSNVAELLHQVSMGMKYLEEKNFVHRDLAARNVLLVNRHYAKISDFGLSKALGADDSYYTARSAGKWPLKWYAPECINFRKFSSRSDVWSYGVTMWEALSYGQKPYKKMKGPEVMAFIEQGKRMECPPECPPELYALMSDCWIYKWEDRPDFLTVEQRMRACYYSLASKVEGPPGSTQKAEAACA
Format: binding
Method: A mixture of 9 μM Zap-70 and 1 μM NGD-6380 is prepared and incubated at room temperature for 30 minutes, a time sufficient for the mixture to reach equilibrium of bound and unbound components. […] The resulting dissociation of NGD-6380 is measured over time at intervals of 20, 30, 40, 60, 70, 80, and 100 minutes. The dissociation of NGD-6380 is measured in the following manner. […] Any amount of NGD-6380 which is not bound to the Zap-70 is separated from the Zap-70-NGD-6380 complex by the size exclusion step. […] Thus, the dissociation of […] is seen by the decreasing amount of the signal response of the NGD-6380 over time. The decrease in the signal response of the NGD-6380 is plotted as a function of time and the experimental data is fit to the exponential decay function of formula (XVIII) using the program Mathematical (Wolfram Research Inc., version 4.1). [ES]=[ES]0e^-ks2·t formula (XVIII) A mixture of 9 μM Zap-70 and 1 μM of a mixture of the ligands depicted in Table 3 is prepared and incubated at room temperature for 30 minutes, a time sufficient for the mixture to reach equilibrium of bound and unbound components. […] The decrease in the signal response of the ligands is plotted as a function of time and the experimental data is fit to the exponential decay function of formula (XVIII) using the program Mathematica®. [ESi]=[[…] formula (XVIII)

**Q.** How did the koff turn out when CN(Cc1ccccc1)c1cc(C(=O)N2CCC[C@H]2CN2CCCC2)c2cc(-c3ccc4c(c3)OCO4)ccc2n1 [NGD-6073] was run?
**A.** 0.000117 s⁻¹

**Q.** For O=C(c1cc(NCc2cccc(F)c2)nc2ccc(-c3ccc4c(c3)OCO4)cc12)N1CCC[C@H]1CN1CCCC1 [NGD-6367], which koff is on record?
**A.** 0.000493 s⁻¹

**Q.** O=C(c1cc(NCc2ccc(Cl)cc2)nc2ccc(-c3ccc4c(c3)OCO4)cc12)N1CCC[C@H]1CN1CCCC1 [NGD-6371] was tested. Which koff did it give?
**A.** 0.000275 s⁻¹

**Q.** How did the koff turn out when O=C(c1cc(NCc2ccc(C(F)(F)F)cc2)nc2ccc(-c3ccc4c(c3)OCO4)cc12)N1CCC[C@H]1CN1CCCC1 [NGD-6380] was run?
**A.** 0.000138 s⁻¹

**Q.** With CC(CNc1cc(C(=O)N2CCC[C@H]2CN2CCCC2)c2cc(-c3ccc4c(c3)OCO4)ccc2n1)c1ccccc1 (stereo partly drawn) [NGD-6390] as the molecule, how does the koff read?
**A.** 0.00021 s⁻¹

**Q.** With CCN(Cc1ccccc1)c1cc(C(=O)N2CCC[C@H]2CN2CCCC2)c2cc(-c3ccc4c(c3)OCO4)ccc2n1 [NGD-6423] as the molecule, how does the koff read?
**A.** 6.5e-05 s⁻¹

**Q.** How did the koff turn out when CN(Cc1ccc(Cl)c(Cl)c1)c1cc(C(=O)N2CCC[C@H]2CN2CCCC2)c2cc(-c3ccc4c(c3)OCO4)ccc2n1 [NGD-6432] was run?
**A.** 0.000117 s⁻¹

**Q.** O=C(c1cc(NCc2ccc(C(F)(F)F)cc2)nc2ccc(-c3ccc4c(c3)OCCO4)cc12)N1CCC[C@H]1CN1CCCC1 [NGD-6862] was tested. Which koff did it give?
**A.** 0.000107 s⁻¹
